Test results reported in patent publication EP0015615A1, “Phenyl piperazine derivatives, their preparation and antiagressive medicines containing them” (DUPHAR INTERNATIONAL RESEARCH B.V, priority 1979, dated 1980).

Test system: fighting behaviour of isolated mice
Test: test on antiagressive activity in isolated mice
Type: in vivo
Conditions: Mus musculus, po, 1 h; male albino mice kept isolated for 4 weeks; administered orally; fighting behaviour evaluated sixty minutes after administration; 5 mice per dose
Protocol: The ED50-values mentioned in the table were determined in a test on antiagressive activity in isolated mice (Advances in Pharmacol. 5, (1967), 79). In this test, male albino mice were kept isolated for a period of 4 weeks and then selected for the test on the basis of fighting behaviour present. The selection criterion is the occurrence of 3 or more fighting periods within 3 minutes after a mouse which has not been kept isolated has been placed in the cage of the mouse kept isolated. The compounds to be investigated were administered orally to the selected mice. Per dose 5 mice were used. Sixty minutes after the administration of the compound to be investigated the animals were evaluated again for fighting behaviour. […] The ED50-value in mg of active substance per kg of body weight was calculated from the results obtained.

Row | Compound | ED50
1 | CC(=O)NCCN1CCN(c2ccccc2)CC1 [US pat. spec. 2.722.529 ex.12, reference compound] | 15 mg/kg
2 | CC(=O)NCC[N+]1([O-])CCN(c2cccc(C(F)(F)F)c2)CC1 [R4=CH3, R5=H, R6=3-CF3, T=O, m=1, p=2, 1-[2-(N-acetylamino)ethyl]-4-(3-trifluoromethylphenyl)piperazine 1-oxide] | 1.5 mg/kg
3 | NC(=O)NC(=O)NCCN1CCN(c2cccc(Cl)c2)CC1 [R4=NH2CONH, R5=H, R6=3-Cl, T=O, m=0, p=2] | 2.3 mg/kg
4 | CCN(CCN1CCN(c2cccc(C(F)(F)F)c2)CC1)C(C)=O [R4=CH3, R5=C2H5, R6=3-CF3, T=O, m=0, p=2, 1-[2-(N-acetyl-N-ethylamino)ethyl]-4-(3-trifluoromethylphenyl) piperazine] | 3.2 mg/kg
5 | COC(=O)NCCN1CCN(c2cccc(Cl)c2)CC1.Cl.Cl [R4=CH3O, R5=H, R6=3-Cl, T=O, m=0, p=2, 1-[2-(N-methoxycarbonylamino)ethyl]-4-(3-chlorophenyl)piperazine dihydrochloride] | 3.5 mg/kg
6 | NC(=O)NC(=O)NCCN1CCN(c2cccc(C(F)(F)F)c2)CC1 [1 [-2-(N-allophanoylamino)ethyl]-4-(3-trifluoromethylphenyl)piperazine] | 1.5 mg/kg
7 | Cl.O=CNCCN1CCN(c2cccc(C(F)(F)F)c2)CC1 [R4=H, R5=H, R6=3-CF3, T=O, m=0, p=2, 1-[2-(N-formylamino)ethyl] -4-(3-trifluoromethylphenyl)piperazine hydrochloride] | 1.7 mg/kg
8 | CC(=O)NCCN1CCN(c2cccc(Cl)c2)CC1 [R4=CH3, R5=H, R6=3-Cl, T=O, m=0, p=2, 1-[2-(N-acetylamino)ethyl]-4-(3-chlorophenyl)piperazine] | 1.8 mg/kg
9 | CC(=O)NCCN1CCN(c2cccc(C(F)(F)F)c2)CC1 [R4=CH3, R5=H, R6=3-CF3, T=O, m=0, p=2, 1-[2-(N-acetylamino)ethyl]-4-(3-trifluoromethylphenyl)piperazine] | 0.7 mg/kg
10 | CC(=S)NCCN1CCN(c2cccc(C(F)(F)F)c2)CC1.Cl [R4=CH3, R5=H, R6=3-CF3, T=S, m=0, p=2, 1-[2-(N-thioacetylamino)ethyl]-4-(3-trifluoromethylphenyl)piperazine hydrochloride] | 1.6 mg/kg
11 | COC(=O)NCCN1CCN(c2cccc(C(F)(F)F)c2)CC1.Cl [R4=CH3O, R5=H, R6=3-CF3, T=O, m=0, p=2, 1-[2-(N-methoxycarbonylamino)ethyl]-4-(3-trifluoromethylphenyl) piperazine hydrochloride] | 0.6 mg/kg
12 | CC(=O)NCCN1CCN(c2cccc(Br)c2)CC1 [R4=CH3, R5=H, R6=3-Br, T=O, m=0, p=2, 1-[2-(N-acetylamino)ethyl]-4-(3-bromophenyl)piperazine] | 2.6 mg/kg
13 | NC(=O)NCC[N+]1([O-])CCN(c2cccc(C(F)(F)F)c2)CC1 [R4=NH2, R5=H, R6=3-CF3, T=O, m=1, p=2, 1-[2-(N-aminocarbonylamino)ethyl]-4-(3-trifluoromethylphenyl) piperazine 1-oxide] | 1.9 mg/kg
14 | O=CNCCN1CCN(c2cccc(Cl)c2)CC1 [R4=H, R5=H, R6=3-Cl, T=O, m=0, p=2, 1-[2-(N-formylamino)ethyl]-4-(3-chlorophenyl)piperazine] | 1.5 mg/kg
15 | CC(=O)NCCN1CCN(c2ccccc2Cl)CC1 [US pat. spec. 2.833.770, reference compound] | 18 mg/kg
16 | CC(=O)N(C)CCN1CCN(c2cccc(C(F)(F)F)c2)CC1.Cl [R4=CH3, R5=CH3, R6=3-CF3, T=O, m=0, p=2, 1-[2-(N-acetyl-N-methylamino)ethyl]-4-(3-trifluoromethylphenyl) piperazine hydrochloride (1:1)] | 0.9 mg/kg
17 | NC(=O)NCCN1CCN(c2cccc(Cl)c2)CC1 [R4=NH2, R5=H, R6=3-Cl, T=O, m=0, p=2, 1-[2-(N-aminocarbonylamino)ethyl]-4-(3-chlorophenyl)piperazine] | 2.3 mg/kg
18 | NC(=O)NCCN1CCN(c2cccc(C(F)(F)F)c2)CC1 [R4=NH2, R5=H, R6=3-CF3, T=O, m=0, p=2, 1-[2-(N-aminocarbonylamino)ethyl]-4-(3-trifluoromethylphenyl) piperazine] | 1.3 mg/kg
